Assay results taken from patent US12678453B2, “Aerosolized formulations of HIV protease inhibitors for the treatment of airway reflux” (The Medical College of Wisconsin, Inc., priority 2020, dated 2026).
Square brackets hold non-standard residues; d marks the D form. Peptide text beside a SMILES is read from it. * marks the point of attachment. Sta = CC(C)C[C@H](N)[C@@H](O)CC(=O)O; Isovaleryl = CC(C)CC(=O)*

What was measured:
[1] = preliminary 12-day toxicity study of aerosolized fosamprenavir; format: in vivo, mice; settings: 12-day exposure
Protocol: In the following Example, the inventors used a small-scale powder disperser (SSPD) to aerosolize Fosamprenavir powder, and monitored particle size distribution by an Optical Particle Sizer (OPS). The SSPD inhales the powder through a venturi aspirator, which is then sampled through OPS at 1 L/min of flow (FIG. 11).
A preliminary 12-day toxicity study was conducted in mice. […] This was the only animal affected, across 15 treated mice, so this is suspected to be unrelated to the fosamprenavir treatment.

[2] = tested on: 14 relevant biomarkers for inflammation and toxicity; experiment: Luminex assay of bronchiolar lavage samples; format: in vivo, mice; settings: control versus lowest dose
Source text: Bronchiolar lavage samples were collected from all mice and a Luminex assay was used to measure 14 relevant biomarkers for inflammation and toxicity.

[3] = known clinical profile; cited from earlier work
[4] = tested on: mouse model of laryngopharyngeal reflux (LPR); experiment: in vivo mouse model of LPR (laryngeal wounding and pepsin instillation, H&E histology); settings: for laryngeal histology (H&E) / pepsin-mediated laryngeal injury: pepsin pH7 group; for laryngeal histology (H&E): solvent (saline/PBS pH7) group
Source text: An in vivo mouse model of direct application of pepsin, to mimic laryngeal exposure during LPR, and treatment with select HIV protease inhibitors by either gavage (oral systemic delivery) or aerosolized delivery (inhaled local delivery) was used. […] Each group contained 3 mice. Six-week-old female Jackson A/J mice (Jackson Laboratory, Bar Harbor, ME), weighed one day after arrival, then weekly, on Mondays thereafter.
Avertin was the preferred anesthetic for the brief application time needed as it has a rapid induction, produces a short surgical anesthesia, and has a rapid recovery. […] For this experiment, isoflurane inhalation was used. The isoflurane, self-scavenging machine, was operated at 3% isoflurane with 2.5 liters of air per minute (LPM). The induction chamber was charged for 3-5 minutes prior to the mice being anesthetized. Mice were placed in the induction chamber for 3-5 minutes prior to any wounding or administrations. Anesthesia records were kept according to IACUC policy.
Animals secured by a copper wire attached to the board from which the mice were suspended by their upper teeth. This caused the lower jaw to fall open naturally, exposing the larynx and permitting visualization with a Zeiss microscope at 6× magnification. […] Under direct visualization, the subglottis, glottis, and supraglottis regions were superficially scratched interiorly from distal to proximal as the needle was pulled out gently, making a mild abrasion. This procedure was performed twice, with one week between woundings.
To examine the effect pepsin at acid and nonacid pH, animals were treated for 2 weeks with laryngeal instillation of pepsin (20 μL at 0.3 mg/ml, pH 7.0 or pH 4.0) at 24, 48, and 72 h post wounding procedure. During weeks 3 and 4, animals were treated with laryngeal instillation for 3 days per week. Mice were sacrificed and samples collected on Friday of the fourth week.
The twelve mice in the aerosol groups were condition in the nose-only exposure chamber (Intox) on three separate days by exposure to dry air for 10 min. Beginning the Monday (day 1) of the next week, aerosols and gavages were performed on the mice Monday through Friday (5 exposures). The aerosols and gavages continued Monday-Friday for three more weeks, with the final week consisting of 4 total exposure days, Monday-Thursday, (19 total) with the mice sacrificed and tissues harvested on Friday. Each mouse received two woundings and 12 solvent or pepsin administrations. Wounding and intratracheal administrations were concurrent with the aerosol and gavage treatments. The first wounding was performed on day 2, followed by solvent or pepsin administrations on days 3, 4, and 5. The second wounding was performed on day 8, followed by solvent or pepsin administrations on days 9, 10, and 11. In weeks 3 and 4, mice received solvent or pepsin administrations on days 16, 17, and 18 and days 23, 24, and 25. Day 26 was sacrifice and tissue harvest.
A 10 mL suspension of drug in ethanol was placed in the baffle, such that the concentration would remain constant at the equilibrium solubility. Droplets of ethanol containing dissolve drug were generated by an ultrasonic atomizer (nominal frequency 1.7 MHz) entrained by air at a flow rate of 0.5 LPM with a custom-built glass baffle (University of Minnesota, Department of Chemistry Glass Shop). The aerosol cloud was then passed through a cylindrical drying column containing an annular ring of charcoal. The ethanol is removed and the emanating dry aerosol particles of pure drug were then directed into the exposure chamber.
The mass deposited on the filters in a fixed collection time was measured gravimetrically, and with the collection time, allowed calculation of the total output rate (mg/min). The aerosol concentration (mass/volume of air) was calculated by dividing the total output rate by the air flow rate (0.5 LPM).

[5] = cited from earlier work
[6] = cited from earlier work; remark: listed apart in the source
[7] = tested on: pepsin; settings: Roberts 2003; cited from earlier work

CC(C)CN(C[C@@H](OP(=O)(O)O)[C@H](Cc1ccccc1)NC(=O)O[C@H]1CCOC1)S(=O)(=O)c1ccc(N)cc1 [fosamprenavir, [(3 S)-oxolan-3-yl]N-[(2S,3R)-4-[(4-aminophenyl)sulfonyl-(2-methylpropyl)amino]-1-phenyl-3-phosphonooxybutan-2-yl]carbamate]
pathology in nasal cavity, larynx, esophagus, trachea, lung, liver, and kidney tissues ([1]; mice): No pathology was observed | heart pathology ([1]; one of 15 treated mice, suspected to be unrelated to treatment): significant inflammation | IL-6 in bronchiolar lavage [2]: showed significance | side effects / tolerability [3]: favorable tolerability profile | laryngeal histology (H&E) / pepsin-mediated laryngeal injury ([4]; aerosol): normal histology | laryngeal histology (H&E) ([4]; aerosol): normal histology | laryngeal histology (H&E) / pepsin-mediated laryngeal injury ([4]; gavage): normal histology | laryngeal histology (H&E) ([4]; gavage): normal histology | pepsin-mediated laryngeal injury (multi-layered, reactive epithelia and cell apoptosis) ([4]; inhalation, 1 mg/kg/d): prevented pepsin mediated laryngeal injury | pharmacokinetics ([5]; in mice): excellent pharmacokinetics | oral bioavailability ([5]; prodrug compared with amprenavir): improved oral bioavailability

CC(C)CC(=O)N[C@H](C(=O)N[C@H](C(=O)N[C@@H](CC(C)C)[C@@H](O)CC(=O)N[C@@H](C)C(=O)N[C@@H](CC(C)C)[C@@H](O)CC(=O)O)C(C)C)C(C)C [pepstatin] (Isovaleryl-VV[Sta]A[Sta]-OH)
water solubility [6]: poor water-solubility | affinity for pepsin [7]: subnanomolar
